# Data published in PubChem BioAssay (NCI).
#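 Cells were grown in 96-well plates and exposed to each compound for 48 hours at five concentrations; endpoints were interpolated linearly between bracketing concentrations, or set to the highest concentration if not reached. GI50 = concentration required for 50% inhibition of growth. TGI is the concentration that stops growth completely.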
# Key:
# Test in all cases: NCI anticancer screen, dose series, 48 h
# [1] = tested on: A549 NSCLC
# [2] = tested on: HCC-2998 colon
# [3] = tested on: MDA-MB-435
# [4] = tested on: HL-60(TB) leukemia
# [5] = tested on: NCI/ADR-RES ovarian
# [6] = tested on: UO-31 renal
# [7] = tested on: SK-OV-3 ovarian
# [8] = tested on: ACHN renal
# [9] = tested on: SW-620 colon
# [10] = tested on: COLO 205 colon
# [11] = tested on: OVCAR-8 ovarian
# [12] = tested on: BT-549 breast
# [13] = tested on: U251 CNS
# [14] = tested on: CAKI-1 renal
# [15] = tested on: MOLT-4 leukemia
# [16] = tested on: SF-295 CNS
# [17] = tested on: MCF7 breast
# [18] = tested on: KM12 colon
# [19] = tested on: SK-MEL-28 melanoma
# [20] = tested on: UACC-257 melanoma
# [21] = tested on: M14 melanoma
# [22] = tested on: SK-MEL-5 melanoma
# [23] = tested on: TK-10 renal
# [24] = tested on: RXF 393 renal
# [25] = tested on: MDA-MB-231 breast
# [26] = tested on: SN12C renal
# [27] = tested on: EKVX NSCLC
# [28] = tested on: 786-0 renal
# [29] = tested on: SNB-75 CNS
# [30] = tested on: HS 578T breast
# [31] = tested on: HOP-92 NSCLC
# [32] = tested on: MALME-3M melanoma
# [33] = tested on: SNB-19 CNS
# [34] = tested on: SK-MEL-2 melanoma
# [35] = tested on: T-47D breast
# [36] = tested on: OVCAR-3 ovarian
# [37] = tested on: NCI-H460 lung
# [38] = tested on: RPMI-8226 leukemia
# [39] = tested on: A498 renal
# [40] = tested on: HT29 colon
# [41] = tested on: OVCAR-5 ovarian
# [42] = tested on: UACC-62 melanoma
# [43] = tested on: SR leukemia
# [44] = tested on: HOP-62 NSCLC
# [45] = tested on: IGROV1 ovarian
# [46] = tested on: HCT-15 colon
# [47] = tested on: NCI-H226 lung
# [48] = tested on: SF-539 CNS
# [49] = tested on: OVCAR-4 ovarian
# [50] = tested on: HCT-116 colon
# [51] = tested on: K-562 leukemia
# [52] = tested on: CCRF-CEM leukemia
# [53] = tested on: DU-145 prostate
# [54] = tested on: NCI-H23 lung
# [55] = tested on: PC-3 prostate
# [56] = tested on: LOX IMVI melanoma
# [57] = tested on: NCI-H522 lung
# [58] = tested on: SF-268 CNS
compound,measurement,setting,value
COC(=O)c1cc(C)[nH]c2c(C)cc3nc4ccccc4c3c12,GI50,[1],10.2 µM
same,TGI,[1],22.8 µM
same,GI50,[2],8.99 µM
same,TGI,[2],23.9 µM
same,GI50,[3],9.01 µM
same,TGI,[3],22.2 µM
same,GI50,[4],7.34 µM
same,TGI,[4],55.3 µM
same,GI50,[5],3.87 µM
same,TGI,[5],18 µM
same,GI50,[6],4.46 µM
same,TGI,[6],19.1 µM
same,GI50,[7],13.4 µM
same,TGI,[7],26.5 µM
same,GI50,[8],11.6 µM
same,TGI,[8],25.4 µM
same,GI50,[9],7.91 µM
same,TGI,[9],27 µM
same,GI50,[10],12.7 µM
same,TGI,[10],25.8 µM
same,GI50,[11],6.35 µM
same,TGI,[11],19 µM
same,GI50,[12],12.1 µM
same,TGI,[12],25 µM
same,GI50,[13],10.7 µM
same,TGI,[13],23.9 µM
same,GI50,[14],2.89 µM
same,TGI,[14],13.4 µM
same,GI50,[15],4.83 µM
same,TGI,[15],42.2 µM
same,GI50,[16],3.41 µM
same,TGI,[16],14.1 µM
same,GI50,[17],8.01 µM
same,TGI,[17],22.8 µM
same,GI50,[18],4.94 µM
same,TGI,[18],18.1 µM
same,GI50,[19],14.6 µM
same,TGI,[19],28.3 µM
same,GI50,[20],16.1 µM
same,TGI,[20],30 µM
same,GI50,[21],11 µM
same,TGI,[21],23.7 µM
same,GI50,[22],5.97 µM
same,TGI,[22],19.2 µM
same,GI50,[23],5.73 µM
same,TGI,[23],19.5 µM
same,GI50,[24],11.6 µM
same,TGI,[24],25 µM
same,GI50,[25],2.44 µM
same,TGI,[25],10.5 µM
same,GI50,[26],11.7 µM
same,TGI,[26],30.8 µM
same,GI50,[27],6.5 µM
same,TGI,[27],20.5 µM
same,GI50,[28],7.1 µM
same,TGI,[28],21.4 µM
same,GI50,[29],8.5 µM
same,TGI,[29],21 µM
same,GI50,[30],15 µM
same,TGI,[30],> 100 µM
same,GI50,[31],5.85 µM
same,TGI,[31],20.7 µM
same,GI50,[32],14.7 µM
same,TGI,[32],28.5 µM
same,GI50,[33],12.7 µM
same,TGI,[33],29.5 µM
same,GI50,[34],13.2 µM
same,TGI,[34],28.8 µM
same,GI50,[35],3.2 µM
same,TGI,[35],12.9 µM
same,GI50,[36],10.3 µM
same,TGI,[36],22.1 µM
same,GI50,[37],4.25 µM
same,TGI,[37],22.5 µM
same,GI50,[38],5.75 µM
same,TGI,[38],46.9 µM
same,GI50,[39],6.07 µM
same,TGI,[39],21.2 µM
same,GI50,[40],3.11 µM
same,TGI,[40],13.5 µM
same,GI50,[41],15.6 µM
same,TGI,[41],32.7 µM
same,GI50,[42],5.99 µM
same,TGI,[42],21.1 µM
same,GI50,[43],6.13 µM
same,TGI,[43],58.2 µM
same,GI50,[44],12.4 µM
same,TGI,[44],25.1 µM
same,GI50,[45],6.01 µM
same,TGI,[45],23.9 µM
same,GI50,[46],5.19 µM
same,TGI,[46],22.2 µM
same,GI50,[47],14 µM
same,TGI,[47],28.9 µM
same,GI50,[48],12.4 µM
same,TGI,[48],26.4 µM
same,GI50,[49],12.5 µM
same,TGI,[49],25.3 µM
same,GI50,[50],10.2 µM
same,TGI,[50],23 µM
same,GI50,[51],4.34 µM
same,TGI,[51],46.1 µM
same,GI50,[52],5.23 µM
same,TGI,[52],86.4 µM
same,GI50,[53],11.8 µM
same,TGI,[53],24.7 µM
same,GI50,[54],7.54 µM
same,TGI,[54],26.4 µM
same,GI50,[55],4.86 µM
same,TGI,[55],18.8 µM
same,GI50,[56],5.38 µM
same,TGI,[56],32.2 µM
same,GI50,[57],3.23 µM
same,TGI,[57],14.5 µM
same,GI50,[58],11 µM
same,TGI,[58],23.8 µM
